{"source": "patent US8703438B2", "about": "“Ligand binding stabilization method for drug target identification” (The Regents of the University of California, priority 2008, dated 2014)", "tested_on": "C. elegans N2 worms", "assay": "C. elegans lifespan analysis", "type": "in vivo", "conditions": "resveratrol 50 μM", "from_the_text": "FIG. 4A: Chemical structure of resveratrol. FIG. 4B: Yeast cell lysates and human HeLa cell lysates were each treated with resveratrol in vitro followed by thermolysin digestion and silver staining. Protected bands of similar size were detected. FIG. 4C: Resveratrol protects TAP-tagged eIF4A, but not an unrelated Htb2, protein from proteolysis. Arrow: protein protected from subtilisin proteolysis (H. sapiens (SEQ ID NO:1), M. musculus (SEQ ID NO:2), X. laevis (SEQ ID NO:3), D. melanogaster (SEQ ID NO:4), C. elegans (SEQ ID NO:5), S. purpuratus (SEQ ID NO:6), C. reinhardtii (SEQ ID NO:7), A. thaliana (SEQ ID NO:8), H. andersenii (SEQ ID NO:9), S. cerevisiae (SEQ ID NO:10)). FIG. 4D: Resveratrol inhibits eIF4A-dependent translation in HEK 293 cells as assayed by bicistronic translation reporters. […] FIG. 4E: eIF4A is required for longevity in resveratrol-treated animals. Resveratrol (50 μM) lengthens the lifespan of wild-type N2 worms fed control (gfp) RNAi (green), but not worms fed eIF4A (inf-1) RNAi (red) or daf-16 RNAi (blue). gfp(RNAi), mVeh=19 (n=74), mRSV=20 (n=78), P=0.0006***; inf-1(RNAi), mVeh=26 (n=76), mRSV=24 (n=79), P=0.4687; daf-16(RNAi), mVeh=17 (n=78), mRSV=17 (n=76), P=0.3305. m, mean lifespan (days of adulthood); n, number of animals tested.\nN2 wild-type strains were maintained at 20° C. on standard nematode growth medium (NGM) seeded with E. coli OP50 as described (Brenner (1974) Genetics 77: 71-94). E. coli RNAi strains were obtained from Open Biosystems; clones were verified by sequencing. To make NGM plates containing resveratrol or vehicle, 240 μl of a solution containing 2.5 mM resveratrol (or the equivalent amount of ethanol, for vehicle control), 20% DMSO, 20% ethanol, 10% phosphate buffered saline (PBS), and 50% ddH20 were spread on top of the NGM plate, making a 50 μM final concentration of resveratrol in the plate. Resveratrol was dissolved in 95% ethanol and stored in 4° C.\nLifespan analysis was conducted with N2 worms at 20° C. Eggs were added to NGM plates containing OP50. […]", "data": [{"smiles": "Oc1ccc(C=Cc2cc(O)cc(O)c2)cc1", "note": "[resveratrol]", "values": [{"measurement": "mean lifespan", "setting": "N2 worms fed daf-16(RNAi), vehicle 17, P=0.3305", "result": "17 days of adulthood"}, {"measurement": "mean lifespan", "setting": "N2 worms fed gfp(RNAi) control, vehicle 19, P=0.0006", "result": "20 days of adulthood"}, {"measurement": "mean lifespan", "setting": "N2 worms fed inf-1(RNAi) (eIF4A), vehicle 26, P=0.4687", "result": "24 days of adulthood"}]}]}
